According to patent publication US12172959B2, “Mono- or di-substituted indole derivatives as dengue viral replication inhibitors” (priority 2015, dated 2024):
Where two headings read alike, the source gives them in different places.

What was measured:
DENV-4 strain H241 = assay: Tetravalent RT-qPCR assay Protocol A, serotype 4 H241; format: cell-based; conditions: Dengue virus, DENV4, Vero, 72 h
Method: (§1) The antiviral activity of the compounds of the invention was tested against DENV-1 strain TC974#666 (NCPV; Table 6), DENV-2 strain 16681 (Table 7), DENV-3 strain H87 (NCPV; Table 8) and DENV-4 strains H241 (NCPV; Table 9A) and SG/06K2270DK1/2005 (Eden; Table 9B) in a RT-qPCR assay. Therefore, Vero cells were infected with either DENV-1, or -2, or -3, or -4 in the presence or absence of test compounds. At day 3 post-infection, the cells were lysed and cell lysates were used to prepare cDNA of both a viral target (the 3′UTR of DENV; Table 2) and a cellular reference gene (β-actin, Table 2). Subsequently, a duplex real time PCR was performed on a Lightcycler480 instrument. The generated Cp value is inversely proportional to the amount of RNA expression of these targets. Inhibition of DENV replication by test compound results in a shift of Cp's for the 3′UTR gene. On the other hand, if a test compound is toxic to the cells, a similar effect on β-actin expression will be observed. The comparative ΔΔCp method is used to calculate EC50, which is based on the relative gene expression of the target gene (3′UTR) normalized with the cellular housekeeping gene (β-actin).
(§2) The culture medium consisted of minimal essential medium supplemented with 2% of heat-inactivated fetal calf serum, 0.04% gentamycin (50 mg/mL) and 2 mM of L-glutamine. Vero cells, obtained from ECACC, were suspended in culture medium and 75 μL/well was added in 96-well plates (10000 cells/well), which already contain the antiviral compounds. […] In addition, each plate contains wells which are assigned as virus controls (containing cells and virus in the absence of compound) and cell controls (containing cells in the absence of virus and compound). Once the cells were added in the plates, the plates were incubated in a fully humidified incubator (37° C., 5% CO2) until the next day. Dengue viruses serotype-1, 2, 3 and 4 were diluted in order to obtain a Cp of ˜22-24 in the assay. Therefore, 25 μL of virus suspension was added to all the wells containing test compound and to the wells assigned as virus control. In parallel, 25 μL of culture medium was added to the cell controls. Next, the plates were incubated for 3 days in a fully humidified incubator (37° C., 5% CO2). After 3 days, the supernatant was removed from the wells and the cells were washed twice with ice-cold PBS (˜100 μL). The cell pellets within the 96-well plates were stored at −80° C. for at least 1 day. Next, RNA was extracted using the Cells-to-CT™ lysis kit, according to the manufacturer's guideline (Life Technologies). The cell lysates can be stored at −80° C. or immediately used in the reverse transcription step.
(§3) In preparation of the reverse transcription step, mix A (table 3A) was prepared and 7.57 μL/well was dispensed in a 96-well plate. After addition of 5 μL of the cell lysates, a five minute denaturation step at 75° C. was performed (table 3B). Afterwards, 7.43 μL of mix B was added (table 3C) and the reverse transcription step was initiated (table 3D) to generate cDNA.
(§4) Finally, a RT-qPCR mix was prepared, mix C (table 4A), and 22.02 μL/well was dispensed in 96-well LightCycler qPCR plates to which 3 μL of cDNA was added and the qPCR was performed according to the conditions in table 4B on a LightCycler 480.
(§5) Using the LightCycler software and an in-house LIMS system, dose response curves for each compound were calculated and the half maximal effective concentration (EC50) and the half maximal cytotoxic concentration (CC50) were determined.

DENV-2 16681 strain = assay: DENV-2 antiviral assay (eGFP fluorescence, Vero cells); format: cell-based, Dengue virus; conditions: DENV-2 16681 eGFP, MOI 0.5, 3 days
Method: The antiviral activity of all the compounds of the invention was tested against the DENV-2 16681 strain which was labeled with enhanced green fluorescent protein (eGPF; Table 1). The culture medium consists of minimal essential medium supplemented with 2% of heat-inactivated fetal calf serum, 0.04% gentamycin (50 mg/mL) and 2 mM of L-glutamine. Vero cells, obtained from ECACC, were suspended in culture medium and 25 μL was added to 384-well plates (2500 cells/well), which already contain the antiviral compounds. Typically, these plates contain a 5-fold serial dilution of 9 dilution steps of the test compound at 200 times the final concentration in 100% DMSO (200 nL). […] Finally, each plate contains wells which are assigned as virus controls (containing cells and virus in the absence of compound), cell controls (containing cells in the absence of virus and compound) and medium controls (containing medium in the absence of cells, virus and compounds). To the wells assigned as medium control, 25 μL of culture medium was added instead of Vero cells. Once the cells were added to the plates, the plates were incubated for 30 minutes at room temperature to allow the cells to distribute evenly within the wells. Next, the plates were incubated in a fully humidified incubator (37° C., 5% CO2) until the next day. Then, DENV-2 strain 16681, labeled with eGFP, was added at a multiplicity of infection (MOI) of 0.5. Therefore, 15 μL of virus suspension was added to all the wells containing test compound and to the wells assigned as virus control. In parallel, 15 μL of culture medium was added to the medium and cell controls. Next, the plates were incubated for 3 days in a fully humidified incubator (37° C., 5% CO2). At the day of the read out, the eGFP fluorescence was measured using an automated fluorescence microscope at 488 nm (blue laser). Using an in-house LIMS system, inhibition dose response curves for each compound were calculated and the half maximal effective concentration (EC50) was determined. Therefore, the percent inhibition (I) for every test concentration is calculated using the following formula: I=100*(ST−SCC)/(SVC−SCC); ST, SCC and SVC are the amount of eGFP signal in the test compound, cell control and virus control wells, respectively. The EC50 represents the concentration of a compound at which the virus replication is inhibited with 50%, as measured by a 50% reduction of the eGFP fluorescent intensity compared to the virus control. The EC50 is calculated using linear interpolation.

DENV-1 strain TC974#666 = assay: Tetravalent RT-qPCR assay Protocol A, serotype 1; format: cell-based; conditions: Dengue virus, DENV1, 72 h, RT-qPCR serotype 1 TC974#666, Vero cells, day 3
Method: as §1, §2, §3, §4, §5

DENV-2 strain 16681 = assay: Tetravalent RT-qPCR assay Protocol A, serotype 2; format: cell-based; conditions: Dengue virus, DENV2, 72 h; Protocol A, RT-qPCR serotype 2 16681, Vero cells, day 3; read-out: EC50
Method: as §1, §2, §3, §4, §5

Vero cells [1] = conditions: African green monkey
DENV-3 strain H87 = assay: Tetravalent RT-qPCR assay Protocol A, serotype 3; format: cell-based; conditions: Dengue virus, DENV3, 72 h, RT-qPCR serotype 3 H87, Vero cells, day 3
Method: as §1, §2, §3, §4, §5

Vero cells [2] = assay: in vitro; format: cell-based; conditions: African green monkey, 3 days
Method: as §1, §2, §5

in vitro = format: cell-based; conditions: African green monkey, CC50
Method: as §1, §2, §5

COc1cc(NC(C(=O)c2c[nH]c3cc(OC)c(OC(F)(F)F)cc23)c2ccc(Cl)cc2OC)cc(S(C)(=O)=O)c1 (single isomer, unassigned) [Compound 10A, 2-(4-chloro-2-methoxyphenyl)-2-((3-methoxy-5-(methylsulfonyl)phenyl)amino)-1-(6-methoxy-5-(trifluoromethoxy)-1H-indol-3-yl)ethanone]
EC50 (DENV-4 strain H241): 11 nM | EC50 (DENV-2 16681 strain): 0.12 nM | EC50 (DENV-1 strain TC974#666): 0.27 nM | EC50 (DENV-2 strain 16681): 0.057 nM | CC50 (Vero cells [1]): 2600 nM | EC50 (DENV-3 strain H87): 3.7 nM | CC50 (Vero cells [2]): 1000 nM | CC50 at 3 days (in vitro): 1600 nM
